From US12358941B2, “Lipidic analogs of anti-cancer stem cell agent” (VIRGINIA COMMONWEALTH UNIVERSITY, priority 2019, dated 2025)
“And” between values parts separate entries of the source, which are not always exact repeats. Equal entries are not always repeated. “Also recorded” adds a separate entry of the source. Where two headings read alike, the source gives them in different places.

How the values were obtained:
HT-29 spheroids (CSCs) = experiment: Primary spheroids inhibition assay, HT-29; type: cell-based
Protocol: (§1) The inhibitory potential of lipid-modified compounds of Formula I against CSCs was tested using a primary spheroids inhibition assay in various cancer cell lines including HT-29, RKO, HCT-116, LS1034, HC-15, WiDr, SW480, COLO205, NCI-H508, SW1116, LS174T, KM12 etc. Cells were grown both under monolayer and spheroid conditions as described in earlier work [Patel, N. J., et al. ACS Chem. Biol. 2014, 9, 1826-1833]. For primary sphere assay, cells were plated in non-treated, low adhesion, 96 wells plate at the concentration of 100 cells/100 μL/well in stem cell media (SCM) that consisted of DMEM:F12:AA, supplemented with 1×B27, 20 ng/mL epidermal growth factor, and 10 ng/mL fibroblast growth factor. After 4 h of incubation, vehicle (control) or G2.2 and its lipid analogs at the desired concentrations were added to each well (at least in triplicates for each sample). On day five, numbers of spheres ranging from 50 to 150 micrometers in diameter were counted using phase contrast microscope and percent inhibition was calculated compared to control. For monolayer assay, approximately 2.5×10^3 cells/100 μL/well were plated in 96-well tissue culture treated plate. After overnight incubation at 37° C. vehicle (control) or G2.2 was added at the desired concentration and the cells were further incubated for 60-72 h. At the end of the incubation, 10 μL of 5 mg mL^−1 MTT solution ((3-(4,5-dimethylthiazol-2-yl)-2,5-diphenyltetrazolium bromide, Sigma) made in phosphate buffered saline (PBS) (Gibco) was added to each well and incubated for minimum of 2 to 3 h until crystals formation was observed. Following this, 150 μL of 4 mM HCl (Sigma) in isopropanol solution was added dropwise to each well and the mixture was triturated until the crystals dissolve completely. Finally, the plate was placed on the spectrophotometer reader and read at 590 nm and growth inhibition was calculated as percent of control.

HT-29 cells (monolayer) = experiment: Monolayer MTT growth assay, HT-29; type: cell-based; details: HT-29 monolayer growth
Protocol: as §1

RKO colon spheroids = experiment: Primary spheroids inhibition assay, RKO; type: cell-based; details: FIG. 6
Protocol: The inhibitory potential of lipid-modified compounds of Formula I against CSCs was tested using a primary spheroids inhibition assay in various cancer cell lines including HT-29, RKO, HCT-116, LS1034, HC-15, WiDr, SW480, COLO205, NCI-H508, SW1116, LS174T, KM12 etc. Cells were grown both under monolayer and spheroid conditions as described in earlier work [Patel, N. J., et al. ACS Chem. Biol. 2014, 9, 1826-1833]. […] On day five, numbers of spheres ranging from 50 to 150 micrometers in diameter were counted using phase contrast microscope and percent inhibition was calculated compared to control. […] At the end of the incubation, 10 μL of 5 mg mL^−1 MTT solution ((3-(4,5-dimethylthiazol-2-yl)-2,5-diphenyltetrazolium bromide, Sigma) made in phosphate buffered saline (PBS) (Gibco) was added to each well and incubated for minimum of 2 to 3 h until crystals formation was observed. Following this, 150 μL of 4 mM HCl (Sigma) in isopropanol solution was added dropwise to each well and the mixture was triturated until the crystals dissolve completely. Finally, the plate was placed on the spectrophotometer reader and read at 590 nm and growth inhibition was calculated as percent of control.

[1] = Pharmacokinetics in rats, plasma concentration by fluorimetry; type: in vivo, Sprague-Dawley rats
Protocol: The animal protocol was approved by the Institutional Animal Care and Use Committee at VCU. Adult male Sprague-Dawley rats weighing 250-275 g were acclimatized for over 3 days with free access to standard rat diet and tap water. Animals were then placed on overnight fasting (i.e., without diet, but with free access to water) on a day before the PK studies. Each animal was anesthetized with an IP injection of urethane and an aliquot (0.1 mL) of blood was withdrawn as a prior-to-dosing or time 0 sample from the jugular vein with a use of 0.11 M sodium citrate (0.01 mL) as anti-coagulant. Rats (n=4 or 5) received G2.2 or IIb via IV injection or PO administration, while one animal received G2.2 via IP bolus injection. G2.2 and IIb were dissolved in sterile saline (0.1 mL IV and IP; 0.2 mLs PO). A series of blood aliquots (0.1 mL) were sampled from the jugular vein at different time points over 0 to 8 h. The blood samples were immediately centrifuged at 11,750 g for 3 min to yield the plasma samples, which were then stored at −70° C. At the conclusion of PK studies, all rats were euthanized by exsanguination under the surgical anesthesia.
The concentrations of G2.2 and lipid analogs in plasma were determined by the quantitative fluorimetry assay in which plasma samples were first diluted 2-fold (v/v) with 0.05 M PBS (pH 7.4), then an equal volume of methanol added and the mixture centrifuged at 11,750 g for 5 min. The supernatants were transferred to black 96 well-plates and the fluorescence at 528 nm (G2.2) or 460 nm (lipid analog) (λEX=340 nm) read using a microplate reader. Reference profiles, prepared for concentrations in the range of 0.5 and 50 μg/mL (R^2=0.98-0.99), were used to calculate plasma concentration at every time point.
The PK profile was analyzed using conventional analysis. The parameters deduced included peak plasma concentration (Cmax), the time required to reach Cmax (Tmax), the plasma concentration-time curve (AUC0-∞), the terminal half-life (t1/2), the apparent clearance (CL/F) and the apparent pseudo-steady state volume of distribution (Vpss/F). The absolute bioavailability (F) was deduced for G2.2, while relative bioavailability was deduced for lipid analogs.

[2] = system: activated partial thromboplastin time (APTT), human plasma; experiment: APTT clotting assay in human plasma; type: biochemical; details: for Safety Index: APTT doubling concentration vs HT-29 CSC IC50; for Concentration required to double APTT: citrated human plasma
Protocol: Glycosaminoglycans, especially heparin/HS, are known for their ability to inhibit the coagulation system. Because G2.2 and its lipid analogs are mimetics of GAGs, it is important to study their effects on the coagulation system. We measured the concentration of lipid-modified G2.2 analogs required to double the activated partial thromboplastin time (APTT; Table 4). The experiments were performed as described in earlier work [Henry, B. L., et al. Blood Coag Fibrinol 2009, 20, 27-34]. Briefly, a standard one-stage recalcification assay in a BBL Fibrosystem fibrometer (Becton-Dickinson, Sparles, MD) was used to measure clotting times in human plasma. A 10 μL aqueous solution of the lipidic analog at a desired concentration was mixed with 90 μL of citrated human plasma and 100 μL of prewarmed APTT reagent. After incubation for 4 min at 37° C., clotting was initiated by adding 100 μL of prewarmed 25 mM CaCl2), and the time to clot was noted. The concentration of the analog required to double the clotting time was calculated from the clotting time versus concentration profile. In general, cholesterol modification of G2.2 increased its anticoagulation potency.

[3] = background statement; cited from earlier work
[4] = system: CSC-induced HT-29 xenografts; experiment: CSC-induced HT-29 xenograft model; type: in vivo
Protocol: Briefly, the protocols were approved by the Animal Component of Research Protocol Committee at McGuire VA Medical Center, Richmond, VA Xenografts were generated by injecting 10^5 CD133 hi/CXCR4hi (Dual hi) fluorescence-activated cell sorter (FACS) isolated HT29 cells suspended in 50% reduced growth factor Matrigel (BD Bioscience; in 50 μL sterile PBS) into the right flank of 6-week-old, female NCr nude mice (Taconic Farms) subcutaneously.
Once the tumors reached 50 mm^3, mice were randomized to either of the three groups (vehicle, 200 mg/kg G2.2, or 100 mg/kg IIb) and dosed i.p three times a week for three weeks. Tumor measurements on each animal were made 3 times a week with Vernier calipers, and tumor volume was calculated using the formula: V=W^2 (L)/2, where V is the volume in mm^3, and W and L are the width and length in mm. […] The remainder of animals were monitored till they reached predefined humane end-points. Animals were sacrificed per Institutional Animal Care and Use Committee—approved methods of euthanasia.

[5] = system: xenografts-derived cells (HT-29), 3° spheroids; experiment: Ex vivo tertiary spheroid formation of xenograft-derived cells; type: cell-based; details: cells from treated xenografts, a week after last dose
From the text: We also utilized our earlier observation that CSCs/progenitors are enhanced several-fold in spheroid culture and assessed the xenografts-derived cells for retention of tertiary spheroid growth inhibition profiles to distinguish between non self-renewing progenitors and self-renewing CSCs ex vivo.

[6] = system: cancerous tissue-derived primary human spheroids; experiment: Patient-derived spheroid growth, cancerous colon tissue; type: cell-based; details: 5 μM
[7] = system: normal colon tissue spheroids; experiment: Patient-derived spheroid growth, normal colon tissue; type: cell-based, human; details: 5 μM
[8] = HT-29 CSCs, Table 4, read-out: IC50 (HT-29 CSCs)
[9] = HT-29 spheroid growth, read-out: Spheroid IC50

For `O=c1c(OS(=O)(=O)O)c(-c2ccc(OS(=O)(=O)O)c(OS(=O)(=O)O)c2)oc2cc(OS(=O)(=O)O)cc(OCCCOc3cc(OS(=O)(=O)O)cc4oc(-c5ccc(OS(=O)(=O)O)c(OS(=O)(=O)O)c5)c(OS(=O)(=O)O)c(=O)c34)c12` [Compound G2.2], the IC50 (HT-29 spheroids (CSCs); [8]) was 29 ± 1 µM, the IC50 (HT-29 spheroids (CSCs); [9]) was 29 ± 1 µM and the IC50 (HT-29 cells (monolayer)) was > 500 µM. The “inhibition of RKO colon spheroids” value (RKO colon spheroids) was “dose-dependent inhibition”, the distribution phase ([1]; G2.2 IV bolus 50 mg/kg, rats) was “about 1.5 hours” and the “AUC0-∞ (area under the plasma concentration v/s time curve)” value ([1]; IP 200 mg/kg, rat) was 6398 µg·h/mL. For the same compound, the Cmax ([1]; IP 200 mg/kg, rat) was 925 µM, the “Cmax (maximum plasma concentration)” value ([1]; IP 200 mg/kg, rat) was ~1350 µg/mL and the “t1/2 (terminal half-life)” value ([1]; IP 200 mg/kg, rat) was 3 h. For the same compound, the “F (absolute bioavailability)” value ([1]; IP 200 mg/kg, rat, 200 mg/kg) was 30%, the terminal half-life ([1]; IV bolus 50 mg/kg, rats) was 4.4 h and the “AUC0-∞ (area under the plasma concentration v/s time curve)” value ([1]; PO 200 mg/kg, rats) was 584 µg·h/mL. The Cmax ([1]; PO 200 mg/kg, rats) was 55.6 µM, the “t1/2 (terminal half-life)” value ([1]; PO 200 mg/kg, rats) was 4.6 h and the “Cmax (maximum plasma concentration)” value ([1]; PO 200 mg/kg, rats, 200 mg/kg) was 81.2 µg/mL and 81 µg/mL. The “F (absolute bioavailability)” value ([1]; PO 200 mg/kg, rats, 200 mg/kg) was 3%, the “Safety Index” value [2] was 22-fold and the “Concentration required to double APTT” value [2] was 640 µM. The half-life [3] was 4 h and the oral bioavailability [3] was < 1%.

In the case of `CC(C)CCCC(C)C1CCC2C3CC=C4CC(OCCCCCCCCOc5cc(-c6oc7cc(OS(=O)(=O)[O-])cc(OCCCOc8cc(OS(=O)(=O)[O-])cc9oc(-c%10ccc(OS(=O)(=O)[O-])c(OS(=O)(=O)[O-])c%10)c(OS(=O)(=O)[O-])c(=O)c89)c7c(=O)c6OS(=O)(=O)[O-])ccc5OS(=O)(=O)[O-])CCC4(C)C3CCC12C.[Na+].[Na+].[Na+].[Na+].[Na+].[Na+].[Na+]` (centres unmarked) [IIc], the IC50 (HT-29 spheroids (CSCs); [8]) is reported as 0.8 ± 0.2 µM, the IC50 (HT-29 spheroids (CSCs); [9]) is reported as 0.8 ± 0.2 µM and the “Monolayer IC50” value (HT-29 cells (monolayer)) is reported as 1079 ± 15%. For the same compound, the “absorption compared with G2.2” value ([1]; PO, rats) was “far greater than that for G2.2”, the “Safety Index” value [2] was 63-fold and the “Concentration required to double APTT” value [2] was 50 µM.

In the case of `CC(C)CCCC(C)C1CCC2C3CC=C4CC(OCCCCCOc5cc(-c6oc7cc(OS(=O)(=O)[O-])cc(OCCCOc8cc(OS(=O)(=O)[O-])cc9oc(-c%10ccc(OS(=O)(=O)[O-])c(OS(=O)(=O)[O-])c%10)c(OS(=O)(=O)[O-])c(=O)c89)c7c(=O)c6OS(=O)(=O)[O-])ccc5OS(=O)(=O)[O-])CCC4(C)C3CCC12C.[Na+].[Na+].[Na+].[Na+].[Na+].[Na+].[Na+]` (centres unmarked) [IIb], the IC50 (HT-29 spheroids (CSCs); [8]) is reported as 8.2 ± 1.5 µM, the IC50 (HT-29 spheroids (CSCs); [9]) is reported as 8.2 ± 1.5 µM and the IC50 (HT-29 cells (monolayer)) is reported as > 500 µM. For the same compound, the “inhibition of RKO colon spheroids” value (RKO colon spheroids) was “dose-dependent inhibition”, the “peaks in the plasma concentration vs. time profile” value ([1]; PO nominal 50 mg/kg, rats, 0-8 h) was “At least 2” and the “Safety Index” value [2] was 6-fold. The “Concentration required to double APTT” value [2] was 48 µM, the “decrease in tumor volume compared with vehicle controls” value ([4]; 100 mg/kg i.p., 3 times a week x 3 weeks, end of treatment) was > 80% and the “gross toxicity (animal body weight)” value ([4]; 100 mg/kg i.p., nude mice) was “did not show any gross toxic effects; also recorded: no gross toxicity”. For the same compound, the “CSC markers (DCLK1, LGR5) and self-renewal factor (BMI-1), western blot of xenografts” value ([4]; 100 mg/kg i.p., vs vehicle) was “robust reduction; also recorded: reduction in CSC markers”, the “tumor volume compared to vehicle treated mice” value ([4]; 100 mg/kg, i.p.) was “significant reduction in tumor volume” and the “effect on tumor volume compared to G2.2 (200 mg/kg)” value ([4]; IIb 100 mg/kg i.p.) was > 2 fold. For the same compound, the “CSC markers, flow cytometry analysis of mice xenografts” value ([4]; IIb treated mice) was “reduction in CSC markers”, the “in vivo potency relative to G2.2” value ([4]; overall in vivo studies) was ~4 fold and the “decrease in 3° spheroid formation vs vehicle controls” value [5] was 2.6 fold. The “inhibition of spheroid growth formation, cancerous tissue” value [6] was “significantly inhibited” and the “effect on spheroid growth formation, normal tissue” value [7] was “without any effect”.

With Enoxaparin [reference compound] the “Concentration required to double APTT” value [2] was 2.5 µM.
